Drawing on patent US11739074B2, “Ras inhibitors” (Revolution Medicines, Inc., priority 2019, dated 2023), this text covers EC50 and IC50 for 22 compounds.

Read-outs that look alike come from different tables or passages of the source. Some results are limits rather than exact numbers.

The test system of test [1] is AsPC-1 (K-Ras G12D). In words: Potency assay: pERK in AsPC-1 cells. It is filed as cell-based. Conditions: Homo sapiens.
In test [2] the test system is AsPC-1 (K-Ras G12D). In words: CellTiter-Glo cell viability assay, AsPC-1. In kind it is cell-based. Conditions: Homo sapiens, ASPC1, 120 h. As to the method: Determination of Cell Viability in RAS Mutant Cancer Cell Lines
Protocol: CellTiter-Glo® Cell Viability Assay
Note—The following protocol describes a procedure for monitoring cell viability of K-Ras mutant cancer cell lines in response to a compound of the invention. Other RAS isoforms may be employed, though the number of cells to be seeded will vary based on cell line used.
Test compounds (132.5 nL) were directly dispensed into the assay plates containing cells. […] On day 5, assay plates and their contents were equilibrated to room temperature for approximately 30 minutes. […] Luminescence was measured using the PerkinElmer Enspire. Data were normalized by the following: (Sample signal/Avg. DMSO)*100. The data were fit using a four-parameter logistic fit.
(In general: In ATP-based viability assays light output follows the ATP content of the culture.)

[3] abbreviates: ASPC1, AsPC-1 cells, K-Ras G12D, read-out: pERK EC50 (AsPC-1 KRAS G12D).
Setting [4] is: AsPC-1, K-Ras G12D, 5-day treatment, read-out: AsPC-1 Cell Viability IC50.
[5] abbreviates: ASPC1, read-out: pERK EC50 (AsPC-1 KRAS G12D).
Setting [6] is: read-out: AsPC-1 Cell Viability IC50, AsPC-1, K-Ras G12D, 5-day treatment.

Take `CCn1c(-c2cccnc2[C@H](C)OC)c2c3cc(ccc31)-c1cc(O)cc(c1)C[C@H](NC(=O)[C@H](C(C)C)N(C)C(=O)[C@H]1CCN(S(=O)(=O)[C@H]3CN3C)C1)C(=O)N1CCC[C@H](N1)C(=O)OCC(C)(C)C2` (single isomer, unassigned) [Compound 57]: the EC50 – broadly, the midpoint of the concentration-response curve – with AsPC-1 (K-Ras G12D) [1] (setting [3]) was < 5 µM. In addition, the half-inhibitory concentration (IC50) (in general, the concentration at which inhibition is half-maximal) in the test with AsPC-1 (K-Ras G12D) [2] (setting [4]) was in the range of 1 to 10 µM. Consider `CCn1c(-c2cccnc2[C@H](C)OC)c2c3cc(ccc31)-c1cc(O)cc(c1)C[C@H](NC(=O)[C@H](C(C)C)N(C)C(=O)CN(C)S(=O)(=O)[C@H]1CN1C)C(=O)N1CCC[C@H](N1)C(=O)OCC(C)(C)C2` (single isomer, unassigned) [Compound 91], for which the concentration giving a half-maximal response (EC50) in the test with AsPC-1 (K-Ras G12D) [1] (setting [3]) is < 5 µM. Besides, the 50% inhibitory concentration (IC50) with AsPC-1 (K-Ras G12D) [2] (setting [4]) was 1 to 10 µM. Take `CCn1c(-c2cccnc2[C@H](C)OC)c2c3cc(ccc31)-c1cc(O)cc(c1)C[C@H](NC(=O)[C@H](C(C)C)N(C)C(=O)CN(C)S(=O)(=O)[C@@H]1CN1C)C(=O)N1CCC[C@H](N1)C(=O)OCC(C)(C)C2` (single isomer, unassigned) [Compound 92]: the half-maximal effective concentration (EC50) with AsPC-1 (K-Ras G12D) [1] (setting [3]) was < 5 µM. In addition, the half-maximal inhibitory concentration (IC50) with AsPC-1 (K-Ras G12D) [2] (setting [4]) was in the range of 1 to 10 µM. For `CCn1c(-c2cccnc2[C@H](C)OC)c2c3cc(ccc31)-c1cc(O)cc(c1)C[C@H](NC(=O)[C@H](C(C)C)N(C)C(=O)C1CCN(S(=O)(=O)[C@H]3CN3C)CC1)C(=O)N1CCC[C@H](N1)C(=O)OCC(C)(C)C2` (single isomer, unassigned) [Compound 108], in the test on AsPC-1 (K-Ras G12D) [1] (setting [3]), the EC50 was < 5 µM. Further, in the test on AsPC-1 (K-Ras G12D) [2] (setting [4]), the half-inhibitory concentration (IC50) lay in the range of 1 to 10 µM. The matching figures for `CCn1c(-c2cccnc2[C@H](C)OC)c2c3cc(ccc31)-c1cc(O)cc(c1)C[C@H](NC(=O)[C@H](C(C)C)N(C)C(=O)C1CN(S(=O)(=O)[C@H]3CN3C)C1)C(=O)N1CCC[C@H](N1)C(=O)OCC(C)(C)C2` (single isomer, unassigned) [Compound 117]: < 5 µM and 1 to 10 µM.

Consider `CCn1c(-c2cccnc2[C@H](C)OC)c2c3cc(ccc31)-c1cc(O)cc(c1)C[C@H](NC(=O)[C@H](C(C)C)N(C)C(=O)C1CN(S(=O)(=O)[C@@H]3CN3C)C1)C(=O)N1CCC[C@H](N1)C(=O)OCC(C)(C)C2` (single isomer, unassigned) [Compound 118], for which the concentration giving a half-maximal response (EC50) in the test with AsPC-1 (K-Ras G12D) [1] (setting [3]) is < 5 µM. Further, in the test with AsPC-1 (K-Ras G12D) [2] (setting [4]), the IC50 was > 10 µM. As for `CCn1c(-c2cccnc2[C@H](C)OC)c2c3cc(ccc31)-c1cc(O)cc(c1)C[C@H](NC(=O)[C@H](C(C)C)N(C)C(=O)C1CCN(S(=O)(=O)[C@@H]3CN3C)CC1)C(=O)N1CCC[C@H](N1)C(=O)OCC(C)(C)C2` (single isomer, unassigned) [Compound 119], the EC50 with AsPC-1 (K-Ras G12D) [1] (setting [3]) is < 5 µM. Further, the IC50 with AsPC-1 (K-Ras G12D) [2] (setting [4]) was in the range of 1 to 10 µM. Take `CCn1c(-c2cccnc2[C@H](C)OC)c2c3cc(ccc31)-c1cc(O)cc(c1)C[C@H](NC(=O)[C@H](C1CCCC1)N(C)C(=O)CN(C)C(=O)[C@@H]1N[C@@H]1C1(C#N)CC1)C(=O)N1CCC[C@H](N1)C(=O)OCC(C)(C)C2` (single isomer, unassigned) [Compound 308]: in the test on AsPC-1 (K-Ras G12D) [1] (setting [3]), the EC50 is < 5 µM. In addition, the IC50 in the test on AsPC-1 (K-Ras G12D) [2] (setting [4]) lay in the range of 1 to 10 µM. On to `CCn1c(-c2cnccc2COC)c2c3cc(ccc31)-c1cccc(c1)C[C@H](NC(=O)[C@H](C(C)C)N(C)C(=O)CCN=C=NC1(COC)CC1)C(=O)N1CCC[C@H](N1)C(=O)OCC(C)(C)C2` [72 A and B], for which, in the test on AsPC-1 (K-Ras G12D) [1] (setting [3]), the EC50 is < 5 µM. The IC50 in the test on AsPC-1 (K-Ras G12D) [2] (setting [4]) fell in the range of 1 to 10 µM. Consider `CCn1c(-c2cnccc2COC)c2c3cc(ccc31)-c1cccc(c1)C[C@H](NC(=O)[C@H](C(C)C)N(C)C(=O)CCN=C=NC(C)(C)C)C(=O)N1CCC[C@H](N1)C(=O)OCC(C)(C)C2` [79 A and B], for which the half-maximal effective concentration (EC50) in the test with AsPC-1 (K-Ras G12D) [1] (setting [3]) was < 5 µM. Moreover, the IC50 with AsPC-1 (K-Ras G12D) [2] (setting [4]) lay in the range of 1 to 10 µM. `CCn1c(-c2cnccc2COC)c2c3cc(ccc31)-c1cc(O)cc(c1)C[C@H](NC(=O)[C@H](C(C)C)N(C)C(=O)CN(C)C(=O)[C@H]1N[C@H]1C(=O)OC)C(=O)N1CCC[C@H](N1)C(=O)OCC(C)(C)C2` [Compound 51]: the concentration giving a half-maximal response (EC50) with AsPC-1 (K-Ras G12D) [1] (setting [5]) is < 5 µM. The IC50 with AsPC-1 (K-Ras G12D) [2] (setting [6]) is > 10 µM. Turning to `CCn1c(-c2cccnc2[C@H](C)OC)c2c3cc(ccc31)-c1cccc(c1)C[C@H](NC(=O)[C@H](C(C)C)N(C)C(=O)CCN=C=NCCOC)C(=O)N1CCC[C@H](N1)C(=O)OCC(C)(C)C2` [Compound 74], in the test with AsPC-1 (K-Ras G12D) [1] (setting [3]), the EC50 was < 5 µM. Besides, the IC50 in the test with AsPC-1 (K-Ras G12D) [2] (setting [4]) was in the range of 1 to 10 µM. With `CCn1c(-c2cccnc2[C@H](C)OC)c2c3cc(ccc31)-c1cccc(c1)C[C@H](NC(=O)[C@H](C(C)C)N(C)C(=O)[C@H]1C[C@H](N=C=NCCOC)C1)C(=O)N1CCC[C@H](N1)C(=O)OCC(C)(C)C2` [Compound 78], the 50% effective concentration (EC50) with AsPC-1 (K-Ras G12D) [1] (setting [3]) is < 5 µM. Besides, in the test with AsPC-1 (K-Ras G12D) [2] (setting [4]), the IC50 lay within 1 to 10 µM. As to `CCn1c(-c2cccnc2[C@H](C)OC)c2c3cc(ccc31)-c1cc(O)cc(c1)C[C@H](NC(=O)[C@H](C(C)C)N(C)C(=O)c1ncc(NC(=O)[C@H]3CN3)n1C)C(=O)N1CCC[C@H](N1)C(=O)OCC(C)(C)C2` [Compound 84], the concentration giving a half-maximal response (EC50) in the test with AsPC-1 (K-Ras G12D) [1] (setting [3]) was < 5 µM. Further, in the test with AsPC-1 (K-Ras G12D) [2] (setting [4]), the half-inhibitory concentration (IC50) fell in the range of 1 to 10 µM.

On to `CCn1c(-c2cccnc2[C@H](C)OC)c2c3cc(ccc31)-c1cc(O)cc(c1)C[C@H](NC(=O)[C@H](C(C)C)N(C)C(=O)C1CCN(C(=O)[C@H]3CN3)CC1)C(=O)N1CCC[C@H](N1)C(=O)OCC(C)(C)C2` [Compound 86], for which the EC50 in the test on AsPC-1 (K-Ras G12D) [1] (setting [3]) was < 5 µM. In addition, the IC50 with AsPC-1 (K-Ras G12D) [2] (setting [4]) lay in the range of 1 to 10 µM. Regarding `CCn1c(-c2cccnc2[C@H](C)OC)c2c3cc(ccc31)-c1cc(O)cc(c1)C[C@H](NC(=O)[C@H](C(C)C)N(C)C(=O)C1CCN(C(=O)[C@@H]3CN3)CC1)C(=O)N1CCC[C@H](N1)C(=O)OCC(C)(C)C2` [Compound 89], the EC50 in the test with AsPC-1 (K-Ras G12D) [1] (setting [3]) was < 5 µM. Moreover, the IC50 with AsPC-1 (K-Ras G12D) [2] (setting [4]) was > 10 µM. `CCn1c(-c2cnccc2COC)c2c3cc(ccc31)-c1cc(O)cc(c1)C[C@H](NC(=O)[C@H](C(C)C)N(C)C(=O)CN(C)C(=O)[C@H]1N[C@H]1c1ccc(OC)cc1)C(=O)N1CCC[C@H](N1)C(=O)OCC(C)(C)C2` [Compound 93]: the EC50 in the test on AsPC-1 (K-Ras G12D) [1] (setting [5]) is < 5 µM. In the test on AsPC-1 (K-Ras G12D) [2] (setting [6]), the half-inhibitory concentration (IC50) is > 10 µM.

Turning to `CCn1c(-c2cnccc2COC)c2c3cc(ccc31)-c1cc(O)cc(c1)C[C@H](NC(=O)[C@H](C(C)C)N(C)C(=O)CN(C)C(=O)[C@H]1N[C@@H]1c1ccc(OC)cc1)C(=O)N1CCC[C@H](N1)C(=O)OCC(C)(C)C2` [Compound 97], the EC50 with AsPC-1 (K-Ras G12D) [1] (setting [5]) is < 5 µM. In addition, the concentration for half-maximal inhibition (IC50) in the test with AsPC-1 (K-Ras G12D) [2] (setting [6]) fell in the range of 1 to 10 µM. On to `CCn1c(-c2cnccc2COC)c2c3cc(ccc31)-c1cc(O)cc(c1)C[C@H](NC(=O)[C@H](C(C)C)N(C)C(=O)CN(C)C(=O)[C@H]1N[C@H]1C1CC1)C(=O)N1CCC[C@H](N1)C(=O)OCC(C)(C)C2` [Compound 104], for which, in the test on AsPC-1 (K-Ras G12D) [1] (setting [5]), the EC50 is < 5 µM. Moreover, the IC50 in the test on AsPC-1 (K-Ras G12D) [2] (setting [6]) was in the range of 1 to 10 µM. Consider `CCn1c(-c2cnccc2COC)c2c3cc(ccc31)-c1cc(O)cc(c1)C[C@H](NC(=O)[C@H](C(C)C)N(C)C(=O)CN(C)C(=O)[C@@H]1N[C@@H]1C)C(=O)N1CCC[C@H](N1)C(=O)OCC(C)(C)C2` [Compound 105], for which the EC50 in the test with AsPC-1 (K-Ras G12D) [1] (setting [5]) is < 5 µM. For the same compound, the concentration for half-maximal inhibition (IC50) with AsPC-1 (K-Ras G12D) [2] (setting [6]) lay within 1 to 10 µM.

In the case of `CCn1c(-c2cccnc2[C@H](C)OC)c2c3cc(ccc31)-c1cc(O)cc(c1)C[C@H](NC(=O)[C@H](C(C)C)N(C)C(=O)[C@H]1CN1)C(=O)N1CCC[C@H](N1)C(=O)OCC(C)(C)C2` [Compound 112], in the test with AsPC-1 (K-Ras G12D) [1] (setting [3]), the EC50 is < 5 µM. Moreover, in the test with AsPC-1 (K-Ras G12D) [2] (setting [4]), the IC50 was 1 to 10 µM. Take `CCn1c(-c2cccnc2[C@H](C)OC)c2c3cc(ccc31)-c1cccc(c1)C[C@H](NC(=O)[C@H](C(C)C)N(C)C(=O)[C@H]1CC[C@H](N=C=NC(C)C)C1)C(=O)N1CCC[C@H](N1)C(=O)OCC(C)(C)C2` [Compound 124]: the EC50 with AsPC-1 (K-Ras G12D) [1] (setting [3]) is < 5 µM.
